Literature values as cited in patent US20040037773A1, “Method for detecting abnormal tissue using enhanced radiopharmaceutical uptake” (Block Medical Center, priority 2002, published 2004).

Test system: mitochondria
Settings: energy dependent manner

**Q.** Which “Share of sestamibi taken up by mitochondria” value does the source give for `[99Tc+].[C-]#[N+]CC(C)(C)OC.[C-]#[N+]CC(C)(C)OC.[C-]#[N+]CC(C)(C)OC.[C-]#[N+]CC(C)(C)OC.[C-]#[N+]CC(C)(C)OC.[C-]#[N+]CC(C)(C)OC` [sestamibi, Technetium-99m hexakis 2-methoxyisobutylisonitrile] here?
**A.** The value was “over 90%”.
